Where two headings read alike, the source gives them in different places.
Key:
Assay type in all cases: biochemical
[1] = target: T1, plasma clot entrapped thrombin (Homo sapiens, UniProt P00734); test: Inhibition of thrombin entrapped in plasma clot (methods M1, M3); details: platelet-rich human plasma clot; Tos-Gly-Pro-Arg-pNA substrate
T1 construct: Here prothrombin is converted to thrombin; from tissue; host or cells: clot of recalcified platelet-rich human citrate plasma
Experimental: The plasma clot was obtained by the recalcification of platelet-rich human citrate plasma and fibrin gel by the coagulation of human fibrinogen with human thrombin Z-D-Arg-Gly-Arg-pNA and Tos Gly-Pro-Arg-pNA were used as substrates for measuring the activity of factor Xa and thrombin (methods M1-M5).
Preparation of Plasma Clot
a) Platelet-rich plasma (PRP) is prepared by centrifuging a 9:1 mixture of human blood and 3.8% aqueous sodium citrate solution (1/2) for 5 minutes at 240×g.
b) 200 μL of PRP are placed in each reaction vessel, 80 μL of 40 mM calcium chloride solution is added and the mixture is left to stand at room temperature for one hour. The plasma clot formed is rinsed mildly with 6×2 ml of 0.9% sodium chloride solution followed by 5 minute sedimentation to remove the dissolved enzymes (factor Xa and thrombin). The thrombin content of the washings is assayed as follows.
c) To 400 μL of washing liquid 100 μL of 1 mM Tos-Gly-Pro-Arg-pNA substrate solution is added and the mixture is incubated for 30 minutes at 37° C., then the reaction is stopped by the addition of 100 μL of 50% acetic acid. 150 μL portions of this mixture are transferred into the wells of the 96-well microtiter plate and the extinction is measured at 405 nm (ELISA READER SLT Laborinstrument GmbH, Austria). When the washing is successful, the extinction is less than 5% of the control
Assay of the Inhibition of Thrombin Entrapped in Plasma Clot
a) Peptide inhibitor solutions are prepared by the process described in Method M2, point a).
b) After draining the washing liquid, 400 μL of the peptide solution (3 parallel samples for each concentration) and 400 μL of buffer, serving as control, are placed on the clot (Method M1) and the mixture is incubated for 5 minutes at 37° C. Thereafter 100 μL of […] Tos-Gly-Pro-Arg-pNA substrate solution is added and incubation at 37° C. is continued for further 30 minutes, then the reaction is stopped by the addition of 100 μL of 50% acetic acid. The operation is continued as described in Method M2, point c).

human factor Xa = target: T2, human factor Xa (Homo sapiens, UniProt P00742); test: Inhibition of the amidolytic effect of factor Xa in solution on Bz-Ile-Glu-Gly-Arg-pNA (method M6); details: Table 2; Bz-Ile-Glu-Gly-Arg-pNA, isolated human factor Xa; read-out: B: IC50 (factor Xa inhibiting effect)
T2 construct: purchased SIGMA
T2 sequence (P00742 235-488 limits assumed): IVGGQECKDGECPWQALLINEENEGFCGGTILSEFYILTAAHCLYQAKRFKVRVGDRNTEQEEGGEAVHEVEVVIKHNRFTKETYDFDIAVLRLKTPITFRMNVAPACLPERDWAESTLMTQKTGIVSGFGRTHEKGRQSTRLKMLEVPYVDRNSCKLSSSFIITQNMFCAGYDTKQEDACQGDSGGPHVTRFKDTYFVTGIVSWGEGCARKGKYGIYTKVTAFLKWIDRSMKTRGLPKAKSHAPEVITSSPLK
T2 sequence (P00742 41-179 partner limits assumed): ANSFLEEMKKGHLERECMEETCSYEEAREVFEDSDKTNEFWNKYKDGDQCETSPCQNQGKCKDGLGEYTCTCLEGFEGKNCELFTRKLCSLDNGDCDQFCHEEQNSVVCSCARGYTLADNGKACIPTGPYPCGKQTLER
Experimental: (§1) Anticoagutant activity (i.e. inhibition of the proteolytic reactions in the process) is measured by anticoagulant tests, e.g. by the thrombin time (TT), activated partial thromboplastin time (APTT) and prothrombin time (PT) tests [E. J. W. Bovie et al; Mayo Clinic Laboratory Manual of Hemostasis; W. B. Sanuders Co., Philadelphia (1971)]. Plasma, inhibited in spontaneous coagulation, e.g. citrate-plasma, is made to coagulate and the required coagulation time is measured. Upon the action of anticoagulants the coagulation time is prolonged proportionally to the inhibition of the reaction(s) in the process. The anticoagulant effect can be characterized by the substance concentration required to double the coagulation time compared to the control (IC50). The effect of anticoagulants on individual coagulant proteases is measured by the amidolytic method [R. Lottenberg et al., Methods in Enzymol. 80, 341 (1981); G. Cleason, Blood Coagulation and Fibrinolysis 5, 411 (1994)]. The isolated active factor (e.g. thrombin, fXa) and its chromogen or fluorogen peptide-amide substrate are reacted in the presence or absence of the inhibitor, resp. The enzyme inhibiting action is characterized by the inhibitory constant (IC50) measured during amidolysis.
(§2) The in vitro anticoagulant effect of the compounds of general formula (I) was measured by the prothrombin time (PT), activated partial thromboplastin time (APTT) and thrombin time (TT) tests [D. Bagdy et at., Thromb. Haemost. 67, 325 (1992)]. The Xa-factor-inhibiting effect of the compounds was also determined by using the Bz-Ile-Glu-Gly-Arg-pNA chromogen substrate (see method M6).
Assay of the Inhibition of Factor Xa in Solution on a 96-well Microtiter Plate
a) 1.3 U/mL factor Xa (human, SIGMA), 0.1-1.0-10 and 100 μg/mL solutions in phosphate buffer (0.1 M sodium phosphate and 0.05 M sodium chloride, pH 7.4) of the peptide inhibitors and […] solutions of the substrate Bz-Ile-Glu-Gly-Arg-pNA in distilled water are used.
b) Three reaction mixtures are prepared from the control and each peptide solution. 30 μL each of the peptide and the buffer, serving as control, 30 μL factor Xa, 90 μL butter and 150 μL substrate are placed in the wells of the plate, then after 10 minutes the extinction values are read at 405 nm The procedure is continued as described in Method M2, point c).

thrombin = target: T3, thrombin (Homo sapiens, UniProt P00734); test: Thrombin time (TT) plasma clotting test
T3 construct: The isolated active factor (e.g. thrombin, fXa) and its chromogen or fluorogen peptide-amide substrate are reacted
Experimental: as §1
In the TT test coagulation is initiated by the thrombin added to the citrate plasma. In the system 22 pmol/mL of thrombin is functioning and in the presence of plasma components its inhibition can be measured on the fibrinogen (one of the natural substrates of thrombin) present In the APTT and PT tests the full coagulation process is made to proceed. Depending on the activator fX is activated by the extrinsic or intrinsic pathway. The generated fXa activates prothrombin to thrombin which, in turn, triggers plasma coagulation. In the test the coagulation time is prolonged if the enzymes or one of them is inhibited by the inhibitor. In the APTT and PT tests at most 40 pmole/ml Xa is generated (this is the full amount of factor X present in both systems) while 150 pmole/ml (APTT) and 350 pmole/ml (PT) are generated from thrombin [B Kaiser et al., Thromb. Res. 65, 157 (1992)].
as §2

[2] = Table 2, concentration doubling clotting time, read-out: A: IC50, TT

Structure (SMILES)	IC50 [1]	IC50 (human factor Xa)	IC50 (thrombin; [2])	IC50 (thrombin; Table 1, concentration doubling clotting time, read-out: B: IC50, TT)	IC50 (thrombin; read-out: concentration doubling the clotting time in the TT test)
N=C(N)NCCC[C@@H](C=O)NC(=O)[C@H]1CCCN1C(=O)C(O)C1CCCCCC1.N=C(N)NCCC[C@@H](C=O)NC(=O)[C@H]1CCCN1C(=O)C(O)C1CCCCCC1.O=S(=O)(O)O (stereo partly drawn) [Compound 1, D-2-Cycloheptyl-2-hydroxyacetyl-L-prolyl-L-arginine aldehyde hemisulfate]	520 nM	63 nM	110 nM	–	–
CN[C@H](Cc1ccccc1)C(=O)N1CCC[C@H]1C(=O)N[C@H](C=O)CCCNC(=N)N [Compound C1, D-MePhe-Pro-Arg-H]	380 nM	9130 nM	90 nM	90 nM	87 nM
